Test results published in patent US10155751B2, “Pyrazolyl-substituted heteroaryls and their use as medicaments” (Boehringer Ingelheim International GmbH, priority 2015, dated 2018).
Like-named read-outs stand apart in the source and are kept apart here.

Biological target: Recombinant human Aurora B (amino acids 1-344) (Homo sapiens (Human), UniProt Q96GD4)
Experiment: Aurora B kinase test (ADP Glo)
Assay type: biochemical
Procedure: The activity of the Aurora B kinase protein was determined using the ADP Glo® Luminescence Kinase test (Promega; V9103X). In this homogeneous test the amount of ADP remaining after the kinase reaction is quantified by a luciferin-luciferase reaction using luminescence. The luminescence signal obtained correlates with the amount of ADP still present and thus correlates with the activity of the protein kinase.
The test compounds were dissolved in 100% DMSO at a concentration of 10 mM and diluted in DMSO to a concentration of 5 mM. Serial Dilution is done in 1:10 steps in 100% DMSO. All further dilutions of the substances were carried out with test buffer (50 mM Hepes, pH 7.5, 10 mM MgCl2, 1 mM EGTA, 60 μM Ultra Pure ATP, 0.01% Brij35, 0.1% BSA, 5 mM 8-Glycerophosphate) until a concentration was reached which was 2.5 times above the final test concentration (final concentration of the compounds: 50 μM to 0.005 nM). 4 μl aliquots of these dilutions were transferred into a 384-well Optiplate (Perkin Elmer, #6007290). His-Aurora B was diluted to 125 nM in the test buffer and 4 μl of this dilution were used in the kinase test (final concentration of Aurora B=50 nM in a total volume of 10 μl). After 15 minutes incubation at room temperature 2 μl of 250 μM substrate ([[…]]; University of Dundee) in test buffer were added to each well and the incubation was continued for a further 60 minutes at room temperature.
Positive controls are the reaction mixtures that contain no test substance; negative controls (blanks) are reaction mixtures that contain no kinase.
After 60 minutes, 10 μl ADP-Glo® solution (ADP-Glo Reagent #V912B Promega) (heated to room temperature) were added to each well and incubation was continued for a further 40. minutes. Then 20 μl Kinase detection mix (Detection Buffer #V913B Promega; Kinase Detection Substrate #V914B Promega) were added and incubated for 40 minutes at room temperature. The plates were read in Envision Luminescence Reader (Perkin-Elmer).
The output file of the reader is a csv file that contains the well number and measured RLU. For data evaluation and calculation, the measurement of the negative control was set as 0% ctrl and the measurement of the positive control was set as 100% ctrl. Based on this values the % value for the measurement of each substance concentration can be calculated using an Assay Explorer software (e.g. Accelrys). Normally, the % ctrl values calculated are between 0% and 100% values but may also occur outside these limits in individual cases based on variability or compound characteristics. The IC50-values were calculated from the % ctrl values using Assay Explorer software. Calculation: [y=(a−d)/(1+(x/c)^b)+d], a=low value, d=high value; x=conc M; c=IC50 M; b=hill; y=% ctrl.

[1] = read-out: AURB inhibition IC50-value (chapter 5.3)

Sequence of Recombinant human Aurora B (amino acids 1-344) (Q96GD4 whole entry, the tested form may be a part): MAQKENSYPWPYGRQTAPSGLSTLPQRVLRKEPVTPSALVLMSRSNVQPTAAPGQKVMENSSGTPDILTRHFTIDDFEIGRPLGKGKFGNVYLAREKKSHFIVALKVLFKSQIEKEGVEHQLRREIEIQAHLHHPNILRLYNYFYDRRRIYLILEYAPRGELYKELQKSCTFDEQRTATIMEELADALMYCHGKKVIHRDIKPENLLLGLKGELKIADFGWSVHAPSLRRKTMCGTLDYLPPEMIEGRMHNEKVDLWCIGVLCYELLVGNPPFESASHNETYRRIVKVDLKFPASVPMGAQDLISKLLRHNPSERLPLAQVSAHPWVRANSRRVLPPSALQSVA

Structure (SMILES)	selectivity ratio IC50(AURB)/IC50(SYK)	IC50 [1]	IC50 (read-out: IC50(AURB))
C[C@@H](Oc1cc(-c2cnn(CCC(F)(F)F)c2)cc2nn(C)c(F)c12)[C@H]1CNC(=O)C1 [Example 12, (R)-4-((R)-1-{3-Fluoro-2-methyl-6-[1-(3,3,3-trifluoro-propyl)-1H-pyrazol-4-yl]-2H-indazol-4-yloxy}-ethyl)-pyrrolidin-2-one]	10207	29.6 µM	
Cc1c2c(O[C@H](C)[C@H]3CNC(=O)C3)cc(-c3cnn(C(C)(C)C)c3)cc2nn1C [Example 13, (R)-4-{(R)-1-[6-(1-tert-Butyl-1H-pyrazol-4-yl)-2,3-dimethyl-2H-indazol-4-yloxy]-ethyl}-pyrrolidin-2-one]	39982	36 µM	
C[C@@H](Oc1cc(-c2cnn(C3CC(C)(C)OC3(C)C)c2)cc2nn(C)c(F)c12)[C@H]1CNC(=O)C1 (stereo partly drawn) [Example 14, (R)-4-((R)-1-{3-Fluoro-2-methyl-6-[1-(2,2,5,5-tetramethyl-tetrahydro-furan-3-yl)-1H-pyrazol-4-yl]-2H-indazol-4-yloxy}-ethyl)-pyrrolidin-2-one]	15625	50 µM	
Cc1c2c(O[C@H](C)[C@H]3CNC(=O)C3)cc(-c3cnn(C4CC(C)(C)OC4(C)C)c3)cc2nn1C (stereo partly drawn) [Example 16, (R)-4-((R)-1-{2,3-Dimethyl-6-[1-(2,2,5,5-tetramethyl-tetrahydro-furan-3-yl)-1H-pyrazol-4-yl]2H-indazol-4-yloxy}-ethyl)-pyrrolidin-2-one]	14323	44.4 µM	
Cc1c2c(O[C@H](C)[C@H]3CNC(=O)C3)cc(-c3cnn(C(C)(C)C#N)c3)cc2nn1C [Example 17, 2-(4-{2,3-Dimethyl-4-[(R)-1-((R)-5-oxo-pyrrolidin-3-yl)-ethoxy]-2H-indazol-6-yl}-pyrazol-1-yl)-2-methyl-propionitrile]	17241	50 µM	
Cc1c2c(O[C@H](C)[C@H]3CNC(=O)C3)cc(-c3cnn(C(C)C)c3)cc2nn1C [Example 18, (R)-4-{(R)-1-[6-(1-Isopropyl-1H-pyrazol-4-yl)-2,3-dimethyl-2H-indazol-4-yloxy]-ethyl}-pyrrolidin-2-one]	18323	20.2 µM	
Cc1c2c(O[C@H](C)[C@H]3CNC(=O)C3)cc(-c3cnn(CC(C)C)c3)cc2nn1C [Example 19, (R)-4-{(R)-1-[6-(1-Isobutyl-1H-pyrazol-4-yl)-2,3-dimethyl-2H-indazol-4-yloxy]-ethyl}-pyrrolidin-2-one]	13212	23.8 µM	
Cc1c2c(O[C@H](C)[C@H]3CNC(=O)C3)cc(-c3cnn(C4CC4)c3)cc2nn1C [Example 20, (R)-4-{(R)-1-[6-(1-Cyclopropyl-1H-pyrazol-4-yl)-2,3-dimethyl-2H-indazol-4-yloxy]-ethyl}-pyrrolidin-2-one]	13932	34.8 µM	
Cc1c2c(O[C@H](C)[C@H]3CNC(=O)C3)cc(-c3cnn(C4CCC4)c3)cc2nn1C [Example 21, (R)-4-{(R)-1-[6-(1-Cyclobutyl-1H-pyrazol-4-yl)-2,3-dimethyl-2H-indazol-4-yloxy]-ethyl}-pyrrolidin-2-one]	14442	17.3 µM	
Cc1c2c(O[C@H](C)[C@H]3CNC(=O)C3)cc(-c3cnn(C4CCC(F)(F)C4)c3)cc2nn1C (stereo partly drawn) [Example 22, (R)-4-((R)-1-{6-[1-(3,3-Difluoro-cyclopentyl)-1H-pyrazol-4-yl]-2,3-dimethyl-2H-indazol-4-yloxy}-ethyl)-pyrrolidin-2-one]	11207	13.4 µM	
C[C@@H](Oc1nc(-c2cnn(C(C)(C)C)c2)cc2ncn(C)c12)[C@H]1CNC(=O)C1 [example 3A.02, on page 196 of WO15017610, reference compound]	891	1.69 µM	1.69 µM
C[C@@H](Oc1cc(-c2cnn(C(C)(C)C)c2)cc2ncn(C)c12)[C@H]1CNC(=O)C1 [example 3B.22 on page 219 of WO15017610, reference compound]	964	0.771 µM	0.771 µM
Cc1cnn2cc(-c3cnn(C(C)(C)C)c3)nc(O[C@H](C)[C@H]3CNC(=O)C3)c12 [example 5.20 on page 506 of WO15017610, reference compound]	810	0.162 µM	0.162 µM
Cc1cnn2cc(-c3cnn(C(C)(C)C)c3)cc(O[C@H](C)[C@H]3CNC(=O)C3)c12 [example 6.09 on page 559 of WO15017610, reference compound]	370	0.037 µM	0.037 µM
Cc1cc2c(O[C@H](C)[C@H]3CNC(=O)C3)cc(-c3cnn(C(C)(C)C)c3)cn2n1 [example 6.60 on page 587 of WO15017610, reference compound]	>4850	> 50 µM	> 50 µM
